Source: patent US9429582B2, “Tyrosine-phosphorylated WBP2, a novel cancer target and biomarker” (National University of Singapore, priority 2010, dated 2016)

What was measured:
Assay type in all cases: cell-based, human
WBP2 [1] = assay: Estrogen/progesterone-induced WBP2 tyrosine phosphorylation in MCF7 (IP/IB); settings: 10 nM E2 or 100 nM P4 for 24 hr, 10 μM Iressa pre-treatment for 1 hr
Procedure: A: Serum-starved cells were stimulated with 50 ng/ml EGF (E) for 5 min or hormone-stripped cells were stimulated with 10 nM Estrogen (E2) or 100 nM Progesterone (P4) for 24 hr with/without 10 μM Iressa (Ir) pre-treatment for 1 hr. Whole cell lysates were used for IP/IB analysis with antibodies indicated. […] D: Serum-starved MCF7 were stimulated with 50 ng/ml EGF (E) for 5 min or hormone-stripped cells were stimulated with 10 nM estrogen (E2) or 100 nM progesterone (P4) for 24 hr with/without 10 μM Iressa (Ir) pre-treatment for 1 hr. Whole cell lysates were used for IP/IB analysis with antibodies indicated. […] 24 hr post-transfection, serum-starved MCF7 were stimulated with 50 ng/ml EGF (E) for 5 min or hormone-stripped cells were stimulated with 10 nM Estrogen (E2) or 100 nM Progesterone (P4) for 24 hr. Whole cell lysates were used for IP/IB analysis with antibodies indicated. “O” denotes “untreated/vehicle-treated”
For all experiments involving estrogen/progesterone (Sigma), MCF7 and T47D were cultured in Phenol-Red Free RPMI1640 (Sigma) containing 5% Charcoal-dextran Stripped FBS (Hyclone) for at least 2 days before stimulation. […] Fresh hormone/drug was replenished every day for treatment that last for more than 1 day.
MCF7, MDA-MB231, T47D, HeLa and MCF10A were from American Type Culture Collection. […]

ERα = assay: ERE-Luciferase reporter assay in MCF7; settings: MCF7; 10 nM E2 24 hr; 1 hr pretreatment with Iressa
Procedure: (§1) A: Hormone-stripped MCF7 or T47D were co-transfected with vector, WBP2-WT or WBP2-Y192-231F mutant and ERE/PRE-Luciferase reporter constructs. Cells were either left alone or stimulated with (a) 50 ng/ml EGF for 5 min, (b) 10 nM E2/100 nM P4 for 24 hr, (c) E2/P4 and EGF in the absence or presence of 1 hr pretreatment with 100 μM Iressa(Ir). ERα/PR-transactivated luciferase activities in various conditions were then assayed. **P<0.01, ***P<0.001, Student's t-test (2-tailed). B: T47D were hormone-stripped and stimulated with 10 nM E2 for the indicated time (0-24 hr) in the absence and presence of 1 hr pretreatment with 10 μM Iressa(k). C: WT-WBP2 or Y192-231F mutant-transfected T47D were hormone stripped followed by 24 hr stimulation with 10 nM E2. For both experiments B and C, cells were then harvested for subcellular fractionation into nuclear and cytoplasmic fractions, which were used for IB/IP analysis with antibodies indicated. Histone 2A and GADPH were used as nuclear and cytoplasmic marker respectively. […] ERE (Top panel)/PR (Bottom panel)-transactivated luciferase activities in various conditions were then assayed analyzed in relative to vehicle-treated vector control. **P<0.01, ***P<0.001, Student's t-test (2-tailed). […] ERα-transactivated luciferase activities in various conditions were then assayed analyzed in relative to vehicle-treated vector control. […]

PR = assay: PRE-Luciferase reporter assay in T47D; settings: 100 nM P4 24 hr, 1 hr pretreatment with Iressa
Procedure: as §1

WBP2 [2] = assay: Subcellular fractionation of T47D, nuclear WBP2 upon estrogen stimulation; settings: 10 nM E2 0-24 hr, 1 hr pretreatment with 10 μM Iressa
Procedure: as §1

estrogen-induced coactivator activity of WBP2 (ERα reporter) (ERα): abolished
progesterone-induced coactivator activity of WBP2 (PR reporter) (PR): abolished
SMILES: COc1cc2ncnc(Nc3ccc(F)c(Cl)c3)c2cc1OCCCN1CCOCC1 [Iressa]
estrogen/progesterone-induced WBP2 phosphorylation (WBP2 [1]): Significant abolishment
nuclear WBP2 upon estrogen stimulation (WBP2 [2]): reduced
